Experiments:
Assay in all cases: relative viability (nuclei count vs DMSO), 5 days (fraction); higher = more cells survive
BI-2536 + Decitabine = compound: CC[C@@H]1C(=O)N(C)c2cnc(Nc3ccc(C(=O)NC4CCN(C)CC4)cc3OC)nc2N1C1CCCC1 [BI-2536] + Nc1ncn([C@H]2C[C@H](O)[C@@H](CO)O2)c(=O)n1 [Decitabine] (partner 2 µM)
Outline: (§1)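 Each reported value is a median over duplicate plates. It expresses relative viability: treated-well nuclei count divided by vehicle-well nuclei count. Lung cancer cell lines in 1536-well plates were dosed by pin tool a day after seeding, alone with one drug or with a fixed anchor-drug dose plus five library-drug doses (not always all listed) in √10 steps, and nuclei were counted after 5 days.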

[1] = compound: CC1CC(=O)N(C2=CN=C(N=C2N1C3CCCC3)NC4=C(C=C(C=C4)C(=O)NC5CCN(CC5)C)OC)C [NPK76-II-72-1] + C[C@]1(O)C[C@@H](c2nc(-c3ccc4ccc(-c5ccccc5)nc4c3)c3c(N)nccn32)C1 [Linsitinib] (partner 1 µM)
Outline: as §1

BI-2536 + Palbociclib = compound: CC[C@@H]1C(=O)N(C)c2cnc(Nc3ccc(C(=O)NC4CCN(C)CC4)cc3OC)nc2N1C1CCCC1 [BI-2536] + CC(=O)c1c(C)c2cnc(Nc3ccc(N4CCNCC4)cn3)nc2n(C2CCCC2)c1=O [Palbociclib] (partner 0.5 µM)
Outline: as §1

[2] = compound: CC1CC(=O)N(C2=CN=C(N=C2N1C3CCCC3)NC4=C(C=C(C=C4)C(=O)NC5CCN(CC5)C)OC)C [NPK76-II-72-1] + C[C@@H](Oc1cc(-c2cnn(C3CCNCC3)c2)cnc1N)c1c(Cl)ccc(F)c1Cl [Crizotinib] (partner 1 µM)
Outline: as §1

| Cell Line | relative viability (BI-2536 + Decitabine; first compound 0.01 µM) | relative viability (BI-2536 + Decitabine; first compound 0.03162 µM) | relative viability (BI-2536 + Decitabine; first compound 0.1 µM) | relative viability (BI-2536 + Decitabine; first compound 0.3162 µM) | relative viability (BI-2536 + Decitabine; first compound 1 µM) | relative viability ([1]; first compound 0.01 µM) | relative viability ([1]; first compound 0.03162 µM) | relative viability ([1]; first compound 0.1 µM) | relative viability ([1]; first compound 0.3162 µM) | relative viability ([1]; first compound 1 µM) | relative viability (BI-2536 + Palbociclib; first compound 0.01 µM) | relative viability (BI-2536 + Palbociclib; first compound 0.03162 µM) | relative viability (BI-2536 + Palbociclib; first compound 0.1 µM) | relative viability (BI-2536 + Palbociclib; first compound 0.3162 µM) | relative viability (BI-2536 + Palbociclib; first compound 1 µM) | relative viability ([2]; first compound 0.01 µM) | relative viability ([2]; first compound 0.03162 µM) | relative viability ([2]; first compound 0.1 µM) | relative viability ([2]; first compound 0.3162 µM) | relative viability ([2]; first compound 1 µM) |
| --- | --- | --- | --- | --- | --- | --- | --- | --- | --- | --- | --- | --- | --- | --- | --- | --- | --- | --- | --- | --- |
| NCI-H2023 | 0.186 | 0.191 | 0.112 | 0.091 | 0.084 | 0.488 | 0.713 | 0.716 | 0.56 | 0.655 | 0.382 | 0.348 | 0.168 | 0.102 | 0.0824 | 0.655 | 0.571 | 0.648 | 0.508 | 0.733 |
| NCI-H2085 | 0.629 | 0.484 | 0.484 | 0.301 | 0.303 | 0.914 | 0.997 | 0.934 | 0.87 | 0.923 | 0.489 | 0.446 | 0.409 | 0.287 | 0.301 | 0.864 | 0.962 | 1.03 | 0.778 | 1.01 |
| NCI-H2087 | 0.273 | 0.247 | 0.149 | 0.0727 | 0.0981 | 1.02 | 0.996 | 0.909 | 1 | 1.11 | 0.225 | 0.189 | 0.203 | 0.0781 | 0.118 | 0.844 | 0.786 | 0.82 | 0.902 | 1.01 |
| NCI-H2126 | 0.547 | 0.591 | 0.492 | 0.247 | 0.244 | 0.756 | 0.777 | 0.701 | 0.671 | 0.752 | 0.324 | 0.368 | 0.352 | 0.276 | 0.232 | 1.02 | 1.07 | 0.965 | 1.01 | 1.06 |
| NCI-H2347 | 0.595 | 0.736 | 0.589 | 0.506 | 0.414 | 0.925 | 1.03 | 1 | 0.896 | 0.983 | 0.471 | 0.426 | 0.369 | 0.385 | 0.387 | 0.742 | 0.698 | 0.715 | 0.718 | 0.944 |
| NCI-H2405 | 0.721 | 0.662 | 0.387 | 0.307 | 0.392 | 0.88 | 1.01 | 0.905 | 0.819 | 1.08 | 0.514 | 0.509 | 0.359 | 0.284 | 0.349 | 0.863 | 0.951 | 0.816 | 0.798 | 0.855 |
| NCI-H3122 | 0.386 | 0.508 | 0.392 | 0.151 | 0.159 | 0.945 | 1.03 | 1.09 | 1.03 | 1.05 | 0.191 | 0.175 | 0.171 | 0.132 | 0.159 | 0.268 | 0.272 | 0.282 | 0.294 | 0.329 |
| PC-3 [JPC-3] | 0.775 | 0.752 | 0.757 | 0.362 | 0.408 | 0.927 | 0.91 | 0.936 | 0.935 | 0.963 | 0.54 | 0.828 | 0.5 | 0.416 | 0.424 | 0.943 | 0.958 | 0.998 | 0.938 | 0.995 |
| PC-14 | 0.227 | 0.172 | 0.09 | 0.0445 | 0.0408 | 0.927 | 1.1 | 0.938 | 0.874 | 1.06 | 0.458 | 0.489 | 0.0853 | 0.0424 | 0.0288 | 0.872 | 0.944 | 0.904 | 0.809 | 1.03 |
| RERF-LC-KJ | 0.692 | 0.437 | 0.157 | 0.194 | 0.215 | 0.902 | 0.876 | 0.802 | 0.771 | 0.923 | 1.09 | 0.949 | 0.491 | 0.266 | 0.241 | 0.808 | 0.644 | 0.771 | 0.728 | 0.868 |
| SK-LU-1 | 0.61 | 0.726 | 0.337 | 0.316 | 0.249 | 1.07 | 1.09 | 1.16 | 1.02 | 1.33 | 0.328 | 0.419 | 0.323 | 0.202 | 0.221 | 0.812 | 1.07 | 0.93 | 0.859 | 0.981 |
| SK-MES-1 | 0.335 | 0.351 | 0.186 | 0.164 | 0.184 | 1.05 | 1.07 | 0.994 | 0.995 | 1.15 | 0.345 | 0.301 | 0.187 | 0.222 | 0.208 | 0.967 | 0.999 | 1.01 | 0.956 | 1.02 |
| SW 1573 | 0.473 | 0.257 | 0.095 | 0.0944 | 0.0866 | 0.808 | 0.794 | 0.721 | 0.728 | 0.681 | 0.347 | 0.237 | 0.172 | 0.116 | 0.0925 | 0.637 | 0.891 | 0.77 | 0.686 | 0.912 |

— the supplement of paper PMC10307832
